Test results taken from ChEMBL document CHEMBL1201862, “PubChem BioAssay data set” (2004).
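Interpolation was linear, between the two tested concentrations surrounding the appropriate level; five concentrations were tested over 48 hours in 96-well plates. GI50: concentration for 50% inhibition of growth.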 Active and inactive are the calls of the source. Cut-off read from the data, not from the text of the source: active = GI50 up to about 1.1 µM and inactive = higher.

Experiments:
Assay in all cases: NCI anticancer screen, dose series, 48 h
LOX IMVI = system: LOX IMVI
EKVX = system: EKVX
SF-268 = system: SF-268
SK-OV-3 = system: SK-OV-3
SN12C = system: SN12C
SF-539 = system: SF-539
UO-31 = system: UO-31
CAKI-1 = system: CAKI-1
SW-620 = system: SW-620
NCI-H460 = system: NCI-H460
HL-60 = system: HL-60
RXF 393 = system: RXF 393
OVCAR-5 = system: OVCAR-5
M14 = system: M14
COLO 205 = system: COLO 205
HOP-62 = system: HOP-62
HCC 2998 = system: HCC 2998

| Compound | GI50 (LOX IMVI) | GI50 (EKVX) | GI50 (SF-268) | GI50 (SK-OV-3) | GI50 (SN12C) | GI50 (SF-539) | GI50 (UO-31) | GI50 (CAKI-1) | GI50 (SW-620) | GI50 (NCI-H460) | GI50 (HL-60) | GI50 (RXF 393) | GI50 (OVCAR-5) | GI50 (M14) | GI50 (COLO 205) | GI50 (HOP-62) | GI50 (HCC 2998) |
| --- | --- | --- | --- | --- | --- | --- | --- | --- | --- | --- | --- | --- | --- | --- | --- | --- | --- |
| CC(=O)OCc1cc(OC(C)=O)cnc1COC(C)=O | > 100 µM (inactive) | > 100 µM (inactive) | > 100 µM (inactive) | > 100 µM (inactive) | > 100 µM (inactive) | > 100 µM (inactive) | > 100 µM (inactive) | > 100 µM (inactive) | > 100 µM (inactive) | > 100 µM (inactive) | > 100 µM (inactive) | > 100 µM (inactive) | > 100 µM (inactive) | > 100 µM (inactive) | > 100 µM (inactive) | > 100 µM (inactive) | – |
| COc1cc(Cl)cc(O)c(=O)c1OC | 26.1 µM (inactive) | 25.4 µM (inactive) | 25.3 µM (inactive) | > 62.5 µM (inactive) | 46 µM (inactive) | 44.5 µM (inactive) | 42.4 µM (inactive) | – | – | 24.3 µM (inactive) | 2.15 µM (inactive) | 26.9 µM (inactive) | > 92.5 µM (inactive) | 41.8 µM (inactive) | 28.7 µM (inactive) | 41.1 µM (inactive) | 63.4 µM (inactive) |
| Cc1ccc(C2CC(c3ccco3)=NN2c2ccccc2)o1 (stereo not given) | > 100 µM (inactive) | > 100 µM (inactive) | > 100 µM (inactive) | – | > 100 µM (inactive) | > 100 µM (inactive) | > 100 µM (inactive) | – | > 100 µM (inactive) | > 100 µM (inactive) | > 100 µM (inactive) | > 100 µM (inactive) | > 100 µM (inactive) | > 100 µM (inactive) | > 100 µM (inactive) | > 100 µM (inactive) | – |
| CC1(C)C(=O)/C=C\C(=O)C(C)(C)C2=CC=C(O2)C(C)(C)C(=O)/C=C\C(=O)C(C)(C)C2=CC=C1O2 | > 100 µM (inactive) | > 100 µM (inactive) | > 100 µM (inactive) | > 100 µM (inactive) | > 100 µM (inactive) | – | – | > 100 µM (inactive) | > 100 µM (inactive) | > 100 µM (inactive) | > 100 µM (inactive) | > 100 µM (inactive) | > 100 µM (inactive) | – | > 100 µM (inactive) | > 100 µM (inactive) | > 100 µM (inactive) |
| CN(C)CCNC(=O)c1ccc(C(=O)NCCN(C)C)c2nc3ccccc3cc12 | 0.519 µM (active) | 1.81 µM (inactive) | 0.962 µM (active) | 0.916 µM (active) | 0.83 µM (active) | 0.378 µM (active) | 4.81 µM (inactive) | 1.48 µM (inactive) | 0.361 µM (active) | 0.384 µM (active) | 0.826 µM (active) | 0.762 µM (active) | 1.22 µM (inactive) | 1.39 µM (inactive) | 0.469 µM (active) | 0.979 µM (active) | 0.9 µM (active) |
| CN1CCC(c2c(O)cc(O)c3c(=O)cc(-c4ccccc4Cl)oc23)C(O)C1 (stereo not given) | 0.0173 µM (active) | < 0.0395 µM (active) | 0.0467 µM (active) | 0.571 µM (active) | 0.143 µM (active) | 0.0929 µM (active) | 0.0303 µM (active) | 0.0628 µM (active) | 0.0339 µM (active) | 0.0592 µM (active) | 0.0197 µM (active) | < 0.0149 µM (active) | 0.128 µM (active) | 0.111 µM (active) | 0.0811 µM (active) | 0.018 µM (active) | 0.165 µM (active) |
| CCOc1ccc(/C=C/c2cc(OC)c(OC)c(OC)c2)cc1 | 1.59 µM (inactive) | > 100 µM (inactive) | 2.18 µM (inactive) | 1.4 µM (inactive) | 4.02 µM (inactive) | 0.456 µM (active) | 17.1 µM (inactive) | 0.564 µM (active) | 0.791 µM (active) | 1.05 µM (active) | 0.509 µM (active) | 0.347 µM (active) | > 100 µM (inactive) | 0.841 µM (active) | 0.635 µM (active) | 0.392 µM (active) | 1.14 µM (inactive) |
| COC(=O)C1CC(c2ccc(Cl)cc2)=NO1 (stereo not given) | – | > 100 µM (inactive) | > 100 µM (inactive) | > 100 µM (inactive) | > 100 µM (inactive) | > 100 µM (inactive) | > 100 µM (inactive) | 6.17 µM (inactive) | > 100 µM (inactive) | > 100 µM (inactive) | > 100 µM (inactive) | – | > 100 µM (inactive) | > 100 µM (inactive) | > 100 µM (inactive) | > 100 µM (inactive) | > 100 µM (inactive) |
| COc1ccc(/C=C/c2onc3c(=O)n(C)nc(-c4ccccc4)c23)cc1 | > 100 µM (inactive) | > 100 µM (inactive) | > 100 µM (inactive) | > 100 µM (inactive) | > 100 µM (inactive) | 48.9 µM (inactive) | > 100 µM (inactive) | 35.9 µM (inactive) | > 100 µM (inactive) | > 100 µM (inactive) | > 100 µM (inactive) | > 100 µM (inactive) | – | > 100 µM (inactive) | > 100 µM (inactive) | 89.3 µM (inactive) | – |
